# From the supplement of paper PMC12613149
# What was measured:
# [1] = collision cross section (TIMS, N2 drift gas) of the primary ion; higher = larger gas-phase ion size
# [2] = reversed-phase LC retention time (C18, 15 min MeOH gradient); higher = more hydrophobic / later elution
# [3] = ionization mode: ESI+, ion species: [M+H]+
# [4] = ionization mode: ESI-, ion species: [M-H]-
# [5] = ionization mode: ESI+, ion species: [M]+
SMILES,"collision cross section [1, 3]","reversed-phase LC retention time [2, 3]","collision cross section [1, 4]","reversed-phase LC retention time [2, 4]","collision cross section [1, 5]","reversed-phase LC retention time [2, 5]"
"N=C(Nc1ccccc1)Nc1ccccc1 [1,3-Diphenylguanidine]",150.19 Å²,8.61 min,,,,
NC(=O)C1(N2CCCCC2)CCN(CCCC(=O)c2ccc(F)cc2)CC1 [Pipamperone],194.74 Å²,9.13 min,,,,
CCc1cccc(C)c1NC(=O)CS(=O)(=O)O,157.12 Å²,8.83 min,155.17 Å²,8.58 min,,
"Cc1cccc(C)c1N [2,6-Xylidine]",117.81 Å²,17.9 min,,,,
COc1ccccc1Oc1c(NS(=O)(=O)c2ccc(C(C)(C)C)cc2)nc(-c2ncccn2)nc1OCCO [Bosentan],231.31 Å²,14.8 min,,,,
Cc1cc(N)c2ccccc2n1 [4-Amino-2-methylquinoline],128.9 Å²,6.89 min,,,,
N#C/N=C1/SCCN1Cc1ccc(Cl)nc1 [Thiacloprid],158.43 Å²,9.94 min,153.51 Å²,10 min,,
O=S(=O)(O)C(F)(F)C(F)(F)C(F)(F)C(F)(F)C(F)(F)C(F)(F)C(F)(F)C(F)(F)F [Perfluorooctanesulfonic acid],,,169.04 Å²,15.4 min,,
Oc1ccc(C(=C(Cl)Cl)c2ccc(O)cc2)cc1 [Bisphenol C],,,164.81 Å²,14.5 min,,
CC(C)(C)Nc1nc(N)nc(Cl)n1 [Desethylterbutylazine],144.23 Å²,12 min,,,,
C=CCOC(Cn1ccnc1)c1ccc(Cl)cc1Cl (stereo unspecified) [Imazalil],167.87 Å²,12.7 min,,,,
C[C@]12CCC(=O)C=C1CC[C@@H]1[C@@H]2CC[C@@]2(C)[C@H]1CC[C@]2(C)O [17alpha-Methyltestosterone],178.22 Å²,14.7 min,,,,
CCCCCCOC(=O)c1ccccc1C(=O)c1ccc(N(CC)CC)cc1O [Uvinul A Plus],209.29 Å²,17.4 min,,,,
CCCCOC(=O)CCCCCCCCC(=O)OCCCC [Dibutyl sebacate],185.48 Å²,18 min,,,,
CN(C1CCCCC1)C1CCCCC1 [N-Methyl-dicyclohexylamine],148.45 Å²,9.45 min,,,,
O=S(=O)(O)C(F)(F)C(F)(F)C(F)(F)C(F)(F)C(F)(F)C(F)(F)F [Perfluorohexanesulfonic acid],,,150.32 Å²,13.9 min,,
c1ccc2sc(NC3CCCCC3)nc2c1 [N-Cyclohexyl-2-benzothiazole-amine],155.21 Å²,14.1 min,157 Å²,15.9 min,,
CCC(=O)OCC(=O)[C@@]1(OC(=O)CC)[C@@H](C)C[C@H]2[C@@H]3CCC4=CC(=O)C=C[C@]4(C)[C@@]3(Cl)[C@@H](O)C[C@@]21C [Beclometasone dipropionate],,,223.83 Å²,16.5 min,,
CCCCCCCCCC[N+](C)(C)Cc1ccccc1 [Benzyldimethyldecylammonium],,,,,183.77 Å²,14.7 min
O=C(Nc1ccccc1)NC1CCCCC1 [1-Cyclohexyl-3-phenylurea],154.52 Å²,13.2 min,,,,
CCCCCCCCCCCCCCCC[N+](C)(C)Cc1ccccc1 [Benzyldimethylhexadecylammonium],,,,,213.31 Å²,17.8 min

SMILES,"collision cross section [1, 3]","reversed-phase LC retention time [2, 3]","collision cross section [1, 4]","reversed-phase LC retention time [2, 4]","collision cross section [1, 5]","reversed-phase LC retention time [2, 5]"
C[N+](C)(C)CC(O)CCl (stereo unspecified) [(3-Chloro-2-hydroxypropyl)trimethylammonium],,,,,127.94 Å²,1.03 min
"CC1(C)CC(O)CC(C)(C)N1CCO [4-Hydroxy-1-(2-hydroxyethyl)-2,2,6,6-tetramethylpiperidine]",143.1 Å²,2.23 min,,,,
Nc1nc(=O)c2ncn(COCC(=O)O)c2[nH]1 [Carboxy-aciclovir],150.15 Å²,2.54 min,,,,
O=c1cc(-c2ccccc2)oc2cc(O)cc(O)c12 [Chrysin],154.65 Å²,14.1 min,156.4 Å²,12.8 min,,
O=C1Nc2ccc(Cl)cc2C(C#CC2CC2)(C(F)(F)F)O1 (stereo unspecified) [Efavirenz],168.93 Å²,15.4 min,167.59 Å²,15.8 min,,
"NC(=O)c1c(Cl)cccc1Cl [2,6-Dichlorobenzamide]",133.04 Å²,7.49 min,,,,
COC(=O)c1ccc(CNS(C)(=O)=O)cc1S(=O)(=O)NC(=O)Nc1nc(OC)cc(OC)n1 [Mesosulfuron-methyl],201.99 Å²,12.7 min,206.67 Å²,9.27 min,,
CCOC(=O)c1ccc(O)cc1 [Ethylparaben],,,133.39 Å²,11.3 min,,
CCC(C)(C)c1cc(-n2nc3ccccc3n2)c(O)c(C(C)(C)CC)c1 [UV-328],196.56 Å²,20.1 min,,,,
COCC(C)N(C(=O)CS(=O)(=O)O)c1c(C)csc1C (stereo unspecified) [Dimethenamid ESA],166.05 Å²,10.9 min,168.76 Å²,10.9 min,,
CCCNCCOc1c(Cl)cc(Cl)cc1Cl,162.11 Å²,12.1 min,,,,
CC[C@H]1OC(=O)C[C@@H](O)[C@H](C)[C@@H](O[C@@H]2O[C@H](C)[C@@H](O[C@H]3C[C@@](C)(O)[C@@H](O)[C@H](C)O3)[C@H](N(C)C)[C@H]2O)[C@@H](CC=O)C[C@@H](C)C(=O)/C=C/C(C)=C/[C@@H]1CO[C@@H]1O[C@H](C)[C@@H](O)[C@@H](OC)[C@H]1OC [Tylosin],282.55 Å²,13 min,293.81 Å²,15.6 min,,
CCCCCCCCCCCCCCCC[N+](C)(C)C [Hexadecyltrimethylammonium],,,,,196.39 Å²,17.4 min
"CC1(C)CC(OC(=O)CCCCCCCCC(=O)OC2CC(C)(C)NC(C)(C)C2)CC(C)(C)N1 [Bis(2,2,6,6-tetramethyl-4-piperidyl)sebacate]",225.08 Å²,11.8 min,,,,
CCCOc1nn(C(=O)NS(=O)(=O)c2ccccc2C(=O)OC)c(=O)n1C [Propoxycarbazone],199.32 Å²,11.7 min,193.45 Å²,9.86 min,,
COCCc1ccc(OCC(O)CNC(C)C)cc1 (stereo unspecified) [Metoprolol],171.87 Å²,9.39 min,,,,
Cc1ccc2[nH]nnc2c1 [5-Methyl-1H-benzotriazole],123.85 Å²,9.87 min,,,,
CCCCC(CC)COP(=O)(O)OCC(CC)CCCC (stereo unspecified) [Bis(2-ethylhexyl)phosphate],223.46 Å²,19.8 min,188.09 Å²,17.1 min,,
Oc1ccc(C(c2ccccc2)(c2ccccc2)c2ccc(O)cc2)cc1 [Bisphenol BP],,,196.58 Å²,16 min,,
CCNc1nc(O)nc(NC(C)C)n1 [2-Hydroxyatrazine],147.52 Å²,8.5 min,146.65 Å²,10.7 min,,
CCN(CC)C(=O)C(C)Oc1cccc2ccccc12 (stereo unspecified) [Napropamide],164.64 Å²,14.9 min,,,,

SMILES,"collision cross section [1, 3]","reversed-phase LC retention time [2, 3]","collision cross section [1, 4]","reversed-phase LC retention time [2, 4]","collision cross section [1, 5]","reversed-phase LC retention time [2, 5]"
CCCCOP(=O)(O)OCCCC [Di-n-butyl phosphate],,,151.01 Å²,11.6 min,,
NC1=NCCN1Cc1ccc(Cl)nc1 [Imidacloprid-guanidine],148.89 Å²,6.21 min,,,,
CC(C)c1ccc2c(c1)CC[C@H]1[C@](C)(C(=O)O)CCC[C@]21C [Dehydroabietic acid],,,184.43 Å²,16.5 min,,
O=C(O)CCCCCCCCCCC(=O)O [Dodecanedioic acid],156.8 Å²,14.7 min,153.38 Å²,8.22 min,,
CC(C)C(=O)c1ccccc1 [Isobutyrophenone],128.32 Å²,17.1 min,,,,
O=P1(NCCCl)OCCCN1CCCl (stereo unspecified) [Ifosfamide],148.36 Å²,10.2 min,,,,
CC1CCc2cc(F)cc3c(=O)c(C(=O)O)cn1c23 (stereo unspecified) [Flumequine],152.91 Å²,11.7 min,166.14 Å²,9.17 min,,
CC(C)(c1ccccc1)c1ccc(O)cc1 [4-Cumylphenol],,,156.38 Å²,15.7 min,,
CN(C)c1ccc(C(=O)c2ccc(N(C)C)cc2)cc1 [Michler's ketone],166.78 Å²,14.9 min,,,,
C#C[C@]1(OC(C)=O)CC[C@H]2[C@@H]3CCC4=C/C(=N/O)CC[C@@H]4[C@H]3CC[C@@]21CC [Norgestimate],200.98 Å²,16.3 min,,,,
CC(O)(CS(=O)(=O)c1ccc(F)cc1)C(=O)Nc1ccc(C#N)c(C(F)(F)F)c1 (stereo unspecified) [Bicalutamide],205.43 Å²,13.4 min,184.69 Å²,13.7 min,,
OCCN1CCN(CC/C=C2/c3ccccc3Sc3ccc(C(F)(F)F)cc32)CC1 [Flupentixol_1],200.91 Å²,14.9 min,,,,
CCCCNC(=O)OCC#CI [3-Iodopropynyl butylcarbamate],147.73 Å²,12.8 min,,,,
CCS(=O)CCSP(=O)(OC)OC (stereo unspecified) [Demeton-S-methyl sulfoxide],142.73 Å²,7.58 min,,,,
O=C1Nc2ccc(Cl)cc2C(c2ccccc2)=NC1O (stereo unspecified) [Oxazepam],164.08 Å²,13.1 min,162.74 Å²,13.4 min,,
Oc1cc(Cl)ccc1Oc1ccc(Cl)cc1Cl [Triclosan],,,158.5 Å²,16.8 min,,
CC(=O)CCc1ccc(O)cc1 [4-(4-Hydroxyphenyl)butan-2-one],132.84 Å²,11.7 min,135.07 Å²,11.9 min,,
"O=P(OCC(Br)CBr)(OCC(Br)CBr)OCC(Br)CBr (stereo unspecified) [Tris(2,3-dibromopropyl)phosphate]",195.61 Å²,16 min,,,,
COCC(=O)N(c1c(C)cccc1C)C(C)C(=O)OC (stereo unspecified) [Metalaxyl],160.45 Å²,12.7 min,,,,
CCCCCCCCCCCC(=O)N(CCO)CCO [Lauryl diethanolamide],185.96 Å²,16.4 min,,,,
